# Measured values reported in PubChem BioAssay (NCI).
#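 Method: 48-hour compound exposure of cells in 96-well plates, five concentrations, linear interpolation of endpoints. TGI denotes the concentration required for complete inhibition of growth.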
# Columns and labels:
# Assay in all cases: DTP human tumour cell line panel, 48 h
# [1] = test system: BT-549 breast
# [2] = test system: CCRF-CEM leukemia
# [3] = test system: EKVX NSCLC
# [4] = test system: HCT-116 colon
# [5] = test system: MDA-MB-231 breast
# [6] = test system: MOLT-4 leukemia
# [7] = test system: NCI-H460 lung
# [8] = test system: OVCAR-8 ovarian
# [9] = test system: SF-268 CNS
# [10] = test system: SK-MEL-2 melanoma
# [11] = test system: SK-OV-3 ovarian
# [12] = test system: SNB-19 CNS
# [13] = test system: SR leukemia
# [14] = test system: U251 CNS
smiles,measurement,setting,value
CCN1CCC(O)(c2ccc([N+](=O)[O-])cc2)C(C(=O)c2ccc([N+](=O)[O-])cc2)C1 (stereo not drawn),TGI,[1],30.8 µM
same,TGI,[2],> 100 µM
same,TGI,[3],37.6 µM
same,TGI,[4],32.6 µM
same,TGI,[5],41.9 µM
same,TGI,[6],58 µM
same,TGI,[7],48.7 µM
same,TGI,[8],81.9 µM
same,TGI,[9],46 µM
same,TGI,[10],> 100 µM
same,TGI,[11],> 100 µM
same,TGI,[12],> 100 µM
same,TGI,[13],> 100 µM
same,TGI,[14],> 100 µM
COc1ccc(-c2oc3cc(-c4cc5oc(-c6ccc(OC)cc6)c(-c6ccc(OC)cc6)c5cc4OC)c(OC)cc3c2-c2ccc(OC)cc2)cc1,TGI,[1],> 100 µM
same,TGI,[2],> 100 µM
same,TGI,[3],> 100 µM
same,TGI,[4],> 100 µM
same,TGI,[5],> 100 µM
same,TGI,[6],> 100 µM
same,TGI,[7],> 100 µM
same,TGI,[8],> 100 µM
same,TGI,[9],> 100 µM
same,TGI,[11],> 100 µM
same,TGI,[12],> 100 µM
same,TGI,[13],> 100 µM
same,TGI,[14],> 100 µM
Clc1ccc(C=Nc2ccc(Oc3ccc(Cl)cc3)c(Cl)c2)cc1,TGI,[1],53.3 µM
same,TGI,[2],59.7 µM
same,TGI,[3],70.2 µM
same,TGI,[4],36.2 µM
same,TGI,[5],47.9 µM
same,TGI,[6],> 100 µM
same,TGI,[7],44.5 µM
same,TGI,[8],> 100 µM
same,TGI,[9],41.1 µM
same,TGI,[10],54.2 µM
same,TGI,[11],50.2 µM
same,TGI,[12],56.2 µM
same,TGI,[14],60.5 µM
COc1ccc(/C(Nc2ccccc2)=C(\CCl)c2ccccc2)cc1OC,TGI,[1],> 100 µM
same,TGI,[2],65.5 µM
same,TGI,[3],> 100 µM
same,TGI,[4],48.9 µM
same,TGI,[5],> 100 µM
same,TGI,[6],> 100 µM
same,TGI,[7],> 100 µM
same,TGI,[8],> 100 µM
same,TGI,[9],> 100 µM
same,TGI,[10],79.9 µM
same,TGI,[11],> 100 µM
same,TGI,[12],> 100 µM
same,TGI,[14],64.7 µM
COC(=O)[C@@H]1CO[C@H](C(C)(C)C)N1C(=O)N1C=CC(=O)C[C@H]1C,TGI,[1],> 100 µM
same,TGI,[2],> 100 µM
same,TGI,[3],> 100 µM
same,TGI,[4],> 100 µM
same,TGI,[5],> 100 µM
same,TGI,[8],> 100 µM
same,TGI,[9],> 100 µM
same,TGI,[10],> 100 µM
same,TGI,[11],> 100 µM
same,TGI,[13],> 100 µM
same,TGI,[14],> 100 µM
COc1cc2nc(Cl)nc(NS(=O)(=O)c3cc4ccccc4s3)c2cc1OC,TGI,[1],57.9 µM
same,TGI,[2],33 µM
same,TGI,[3],66.5 µM
same,TGI,[4],> 100 µM
same,TGI,[5],71.7 µM
same,TGI,[7],> 100 µM
same,TGI,[8],> 100 µM
same,TGI,[9],> 100 µM
same,TGI,[10],61.1 µM
same,TGI,[11],98.5 µM
same,TGI,[12],48.6 µM
same,TGI,[13],60.6 µM
same,TGI,[14],68.5 µM
NC1=NC2(COC(c3ccccc3)(c3ccccc3)c3ccccc3)OC(COC(c3ccccc3)(c3ccccc3)c3ccccc3)C(O)C2O1 (stereo not drawn),TGI,[1],> 100 µM
same,TGI,[2],> 100 µM
same,TGI,[3],> 100 µM
same,TGI,[4],> 100 µM
same,TGI,[5],> 100 µM
same,TGI,[6],> 100 µM
same,TGI,[8],> 100 µM
same,TGI,[10],85.5 µM
same,TGI,[11],> 100 µM
same,TGI,[12],> 100 µM
same,TGI,[13],> 100 µM
same,TGI,[14],> 100 µM
O=C1CC(O)c2cscc21 (stereo not drawn),TGI,[1],> 100 µM
same,TGI,[2],45.8 µM
same,TGI,[3],> 100 µM
same,TGI,[4],> 100 µM
same,TGI,[5],> 100 µM
same,TGI,[6],> 100 µM
same,TGI,[7],> 100 µM
same,TGI,[8],> 100 µM
same,TGI,[9],> 100 µM
same,TGI,[10],> 100 µM
same,TGI,[11],> 100 µM
same,TGI,[13],> 100 µM
same,TGI,[14],> 100 µM
CC(=O)NC1C(OCC(=O)NCCNc2ccc([N+](=O)[O-])c3[nH]c4ccccc4c(=O)c23)C(O)C(CO)OC1(C)OCc1ccccc1 (stereo not drawn),TGI,[1],> 100 µM
same,TGI,[2],> 100 µM
same,TGI,[3],> 100 µM
same,TGI,[4],> 100 µM
same,TGI,[5],> 100 µM
same,TGI,[6],> 100 µM
same,TGI,[7],> 100 µM
same,TGI,[8],> 100 µM
same,TGI,[9],> 100 µM
same,TGI,[10],> 100 µM
same,TGI,[11],> 100 µM
same,TGI,[12],> 100 µM
same,TGI,[14],> 100 µM
CCOC(=O)c1cn(CC)c(=O)n2c1nc1ccccc12,TGI,[1],> 100 µM
same,TGI,[2],> 100 µM
same,TGI,[3],> 100 µM
same,TGI,[4],> 100 µM
same,TGI,[5],> 100 µM
same,TGI,[6],> 100 µM
same,TGI,[7],> 100 µM
same,TGI,[8],> 100 µM
same,TGI,[10],> 100 µM
same,TGI,[12],> 100 µM
same,TGI,[13],> 100 µM
same,TGI,[14],> 100 µM
COC1(OC)CCc2c(sc3ncnc(Nc4cccc(Br)c4)c23)C1,TGI,[1],> 100 µM
same,TGI,[3],59.2 µM
same,TGI,[4],> 100 µM
same,TGI,[5],> 100 µM
same,TGI,[6],41.5 µM
same,TGI,[7],> 100 µM
same,TGI,[8],> 100 µM
same,TGI,[9],> 100 µM
same,TGI,[10],> 100 µM
same,TGI,[11],> 100 µM
same,TGI,[12],> 100 µM
same,TGI,[13],> 100 µM
same,TGI,[14],> 100 µM
CCN1/C(=C/C#C/C(C)=C\c2sc3ccc(Cl)cc3[n+]2CC)Sc2ccc(Cl)cc21,TGI,[1],6 µM
same,TGI,[2],> 100 µM
same,TGI,[3],20.8 µM
same,TGI,[4],12.3 µM
same,TGI,[5],19.7 µM
same,TGI,[7],> 100 µM
same,TGI,[8],17 µM
same,TGI,[9],21.4 µM
same,TGI,[10],4.85 µM
same,TGI,[11],22 µM
same,TGI,[12],18.9 µM
same,TGI,[13],> 100 µM
same,TGI,[14],23.2 µM
O=C(Nn1c(-c2ccccc2)nc2ccccc2c1=O)c1ccc(Cl)cc1,TGI,[1],> 100 µM
same,TGI,[2],> 100 µM
same,TGI,[3],> 100 µM
same,TGI,[4],> 100 µM
same,TGI,[5],> 100 µM
same,TGI,[6],> 100 µM
same,TGI,[7],> 100 µM
same,TGI,[8],> 100 µM
same,TGI,[9],> 100 µM
same,TGI,[11],> 100 µM
same,TGI,[12],> 100 µM
same,TGI,[13],> 100 µM
same,TGI,[14],> 100 µM
CSC(=O)/C=C1\SS/C(=C\C(=O)SC)S1,TGI,[1],3.26 µM
same,TGI,[2],> 100 µM
same,TGI,[3],6.68 µM
same,TGI,[4],3.29 µM
same,TGI,[5],4.85 µM
same,TGI,[6],> 100 µM
same,TGI,[7],7.61 µM
same,TGI,[8],11.7 µM
same,TGI,[9],6.72 µM
same,TGI,[10],4.93 µM
same,TGI,[12],20.7 µM
same,TGI,[13],> 100 µM
same,TGI,[14],6.03 µM
COC1(OC)c2occc2C(=N)c2ccc(=O)oc21,TGI,[1],> 100 µM
same,TGI,[2],> 100 µM
same,TGI,[3],> 100 µM
same,TGI,[4],> 100 µM
same,TGI,[5],> 100 µM
same,TGI,[6],> 100 µM
same,TGI,[7],> 100 µM
same,TGI,[9],> 100 µM
same,TGI,[10],> 100 µM
same,TGI,[11],> 100 µM
same,TGI,[12],> 100 µM
same,TGI,[13],> 100 µM
same,TGI,[14],> 100 µM
C[C@H]1CC[C@@]2(OC1)O[C@H]1C[C@H]3[C@@H]4CC[C@@H]5C[C@@H](OC6OC(CO)C(O)C(O)C6OC6OC(CO)C(O)C(O)C6O)CC[C@]5(C)[C@H]4CC[C@]3(C)[C@H]1[C@@H]2C (stereo partly drawn),TGI,[1],4.1 µM
same,TGI,[2],3.73 µM
same,TGI,[3],3.79 µM
same,TGI,[4],3.7 µM
same,TGI,[5],3.81 µM
same,TGI,[6],3.79 µM
same,TGI,[8],4.26 µM
same,TGI,[9],4.25 µM
same,TGI,[10],4.03 µM
same,TGI,[11],3.29 µM
same,TGI,[12],3.9 µM
same,TGI,[13],4.3 µM
same,TGI,[14],4 µM
Cc1cc(O)c(/C=N/C(N)=S)c(=O)o1,TGI,[1],> 100 µM
same,TGI,[2],84.4 µM
same,TGI,[3],> 100 µM
same,TGI,[4],> 100 µM
same,TGI,[5],> 100 µM
same,TGI,[6],> 100 µM
same,TGI,[7],> 100 µM
same,TGI,[8],> 100 µM
same,TGI,[9],> 100 µM
same,TGI,[10],> 100 µM
same,TGI,[11],> 100 µM
same,TGI,[12],> 100 µM
same,TGI,[14],> 100 µM
